Measured values: ChEMBL document CHEMBL5233252, “Single and dual target inhibitors based on Bcl-2: Promising anti-tumor agents for cancer therapy” (Eur J Med Chem, 2020)
Where a SMILES comes first, the peptide text is derived from it.

What was measured:
[1] = target: T1, Apoptosis regulator Bcl-2 (Homo sapiens, UniProt P10415); test: Inhibition of Flu-BakBH3 binding to recombinant GST-tagged Bcl-2 (unknown origin) incubated for 30 mins by competitive fluorescence polarization assay
[2] = target: T1, Apoptosis regulator Bcl-2; test: Binding affinity to Bcl-2 (unknown origin) by ELISA analysis
[3] = Inhibition of Bcl-2/Mcl-1 in human MCF7 cells; assay type: cell-based
[4] = target: T1, Apoptosis regulator Bcl-2; test: Inhibition of Bcl-2 (unknown origin) by ELISA analysis
[5] = target: T1, Apoptosis regulator Bcl-2; test: Binding affinity to recombinant Bcl-2 (unknown origin) expressed in Escherichia coli BL21 (DE3) cells assessed as dissociation constant by MST analysis
[6] = target: T2, Induced myeloid leukemia cell differentiation protein Mcl-1 (Homo sapiens, UniProt Q07820); test: Binding affinity to Mcl-1 (unknown origin) assessed as inhibition constant
T2 sequence (Q07820 whole entry): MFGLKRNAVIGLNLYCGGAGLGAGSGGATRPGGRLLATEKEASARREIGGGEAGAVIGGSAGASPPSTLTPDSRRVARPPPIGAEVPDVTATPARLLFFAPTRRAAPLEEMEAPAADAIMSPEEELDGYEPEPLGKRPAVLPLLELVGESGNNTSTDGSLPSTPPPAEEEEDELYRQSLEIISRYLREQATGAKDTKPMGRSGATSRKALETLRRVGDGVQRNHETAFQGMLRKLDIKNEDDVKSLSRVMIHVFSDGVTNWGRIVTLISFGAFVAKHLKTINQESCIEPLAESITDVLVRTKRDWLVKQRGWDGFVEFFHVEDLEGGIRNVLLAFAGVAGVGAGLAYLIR

[7] = target: T1, Apoptosis regulator Bcl-2; test: Binding affinity to Bcl-2 (unknown origin) assessed as inhibition constant
[8] = target: T3, Bcl-2-like protein 1 (Homo sapiens, UniProt Q07817); test: Binding affinity to Bcl-xL (unknown origin) assessed as inhibition constant
T3 sequence (Q07817 whole entry): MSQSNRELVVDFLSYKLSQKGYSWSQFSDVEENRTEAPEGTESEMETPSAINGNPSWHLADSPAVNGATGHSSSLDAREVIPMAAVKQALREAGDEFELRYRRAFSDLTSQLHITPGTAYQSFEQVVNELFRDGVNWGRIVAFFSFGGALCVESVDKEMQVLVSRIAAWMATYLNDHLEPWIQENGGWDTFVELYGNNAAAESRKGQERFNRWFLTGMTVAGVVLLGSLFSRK

[9] = target: T3, Bcl-2-like protein 1; test: Binding affinity to recombinant His-tagged human Bcl-xL expressed in Escherichia coli assessed as inhibition constant by SPR analysis
[10] = target: T1, Apoptosis regulator Bcl-2; test: Inhibition of Flu-BakBH3 binding to GST-tagged Bcl-2 (unknown origin) preincubated for 10 mins followed by Flu-BakBH3 addition and measured after 30 mins by competitive fluorescence polarization assay
[11] = target: T4, Bcl-2-like protein 2 (Homo sapiens, UniProt Q92843); test: Binding affinity to Bcl-w (unknown origin) assessed as inhibition constant by competitive fluorescence polarization assay
T4 sequence (Q92843 whole entry): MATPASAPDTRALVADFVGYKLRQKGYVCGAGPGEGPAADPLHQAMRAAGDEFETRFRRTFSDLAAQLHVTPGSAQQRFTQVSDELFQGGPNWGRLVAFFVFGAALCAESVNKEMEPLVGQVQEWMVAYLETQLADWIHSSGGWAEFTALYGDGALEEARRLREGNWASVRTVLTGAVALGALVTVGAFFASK

[12] = target: T2, Induced myeloid leukemia cell differentiation protein Mcl-1; test: Binding affinity to Mcl-1 (unknown origin) assessed as inhibition constant by TR-FRET assay
[13] = tested on: RS4-11; test: Induction of apoptosis in human RS4-11 cells; assay type: functional, cell-based
[14] = Half-life in human; assay type: ADME
[15] = target: T1, Apoptosis regulator Bcl-2; test: Binding affinity to recombinant His-tagged human Bcl-2 expressed in Escherichia coli assessed as inhibition constant by SPR analysis

T1 sequence (P10415 whole entry): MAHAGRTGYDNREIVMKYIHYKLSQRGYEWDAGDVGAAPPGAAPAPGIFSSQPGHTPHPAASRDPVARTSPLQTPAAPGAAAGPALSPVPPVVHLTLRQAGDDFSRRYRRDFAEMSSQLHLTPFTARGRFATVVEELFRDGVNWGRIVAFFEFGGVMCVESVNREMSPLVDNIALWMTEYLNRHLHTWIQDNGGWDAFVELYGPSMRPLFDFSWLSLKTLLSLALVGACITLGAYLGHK

CCOC(=O)C1=C(N)Oc2ccc(Br)cc2C1C(C#N)C(=O)OCC (stereo not given)
IC50 [1]: 9000 nM

O=[N+]([O-])c1ccccc1Nc1nnc(-c2c[nH]c3ccccc23)o1
IC50 [2]: 4270 nM

CC(C)(C)c1ccc(C(=O)NCCN2C(=O)c3cccc4c(Sc5ccc(Br)cc5)ccc(c34)C2=O)cc1
IC50 [3]: 7900 nM | IC50 [4]: 2110 nM

COc1c(O)cc(O)c2c(=O)cc(-c3ccc(O)c(O)c3)oc12
Kd [5]: 36100 nM

CC1=C(C2=C(C)C(=O)C3C(C(C)C)=C(O)C(O)=CC3C2=O)C(=O)c2cc(O)c(O)c(C(C)C)c2C1=O (stereo not given)
Ki [6]: 25 nM | Ki [7]: 35 nM | Ki [8]: 660 nM

CCCCCCCCCCCCCCCC(=O)N[C@H](C(=O)N[C@@H](C)C(=O)N[C@@H](CCC(N)=O)C(=O)N[C@@H](CCC(=O)O)C(=O)N[C@@H](CCCNC(=N)N)C(=O)N[C@@H](CCCNC(=N)N)C(=O)N[C@H](C(=O)NCC(=O)N[C@@H](CC(=O)O)C(=O)N[C@@H](CCC(=O)O)C(=O)N[C@@H](Cc1ccccc1)C(N)=O)[C@@H](C)CC)[C@@H](C)CC (HELM PEPTIDE1{[CCCCCCCCCCCCCCCC(=O)[*:2]].I.A.Q.E.R.R.I.G.D.E.F.[am]}$$$$V2.0)
Ki [9]: 22.2 nM

Cc1cc2c(C(C)C)c(O)c(O)cc2c(O)c1-c1c(C)cc2c(C(C)C)c(O)c(O)cc2c1O [APOGOSSYPOL]
EC50 [10]: 2800 nM

CC1(C)CCC(c2ccc(Cl)cc2)=C(CN2CCN(c3ccc(C(=O)NS(=O)(=O)c4ccc(N[C@H](CCN5CCOCC5)CSc5ccccc5)c(S(=O)(=O)C(F)(F)F)c4)cc3)CC2)C1 [NAVITOCLAX]
Ki [11]: ≤ 1 nM

CC1(C)CCC(CN2CCN(c3ccc(C(=O)NS(=O)(=O)c4ccc(NCC5CCOCC5)c([N+](=O)[O-])c4)c(Oc4cnc5[nH]ccc5c4)c3)CC2)=C(c2ccc(Cl)cc2)C1 [VENETOCLAX]
Ki [12]: > 444 nM | EC50 [13]: 3 nM | half-life [14]: 26 h

Ac-IAQERRIGDEF-NH2
Ki [15]: 9.48 nM
